From US4442044A, “Process for preparing monoesters and diesters of N-alkyl substituted amino methyl phosphonic acid” (priority 1983, dated 1984)

What was measured:
Experiment in all cases: post-emergent herbicidal activity, greenhouse
Type in all cases: in vivo
Conditions in all cases: Table I
Canada Thistle = system: Canada Thistle
From the text: (§1) A good grade of top soil is placed in aluminum pans having holes in the bottom and compacted to a depth of 0.95 to 1.27 cm. from the top of the pan. A predetermined number of seeds of each of several dicotyledonous and monocotyledonous annual plant species and/or vegetative propagules for the perennial plant species were placed on the soil and pressed into the soil surface. The seeds and/or vegetative propagules are covered with soil and leveled. The pans are then placed on a sand bench in the greenhouse and watered from below as needed. After the plants reach the desired age (two to three weeks), each pan except for the control pans is removed individually to a spraying chamber and sprayed by means of an atomizer operating at a positive air pressure of approximately 1.46 kg/cm^2 absolute. The atomizer contains 6 ml. of a solution or suspension of the chemical. In that 6 ml., is an amount of a cyclohexanone emulsifying agent mixture to give a spray solution or suspension which contains about 0.4% by weight of the emulsifier. The spray solution or suspension contains a sufficient amount of the candidate chemical in order to give application rates corresponding to those set forth in the tables. The spray solution is prepared by taking an aliquot of a 1.0% by weight stock solution or suspension of the candidate chemical in an organic solvent such as acetone or tetrahydrofuran or in water. The emulsifying agent employed is a mixture comprising 35 weight percent butylamine dodecylbenzene sulfonate and 65 weight percent of a tall oil ethylene oxide condensate having about 11 moles of ethylene oxide per mole of tall oil. The pans are returned to the greenhouse and watered as before and the injury to the plants as compared to the control is observed at approximately two and four weeks as indicated in the tables under WAT and the results recorded. In some instances, the two-week observations are omitted.
(§2) The post-emergent herbicidal activity index used in Tables I and II is as follows: […]

Barnyardgrass = system: Barnyardgrass
From the text: as §1, §2

Cocklebur = system: Cocklebur
From the text: as §1, §2

Morningglory = system: Morningglory
From the text: as §1, §2

Lambsquarters = system: Lambsquarters
From the text: as §1, §2

Downy Brome = system: Downy Brome
From the text: as §1, §2

Johnsongrass = system: Johnsongrass
From the text: as §1, §2

Quackgrass = system: Quackgrass
From the text: as §1, §2

Yellow Nutsedge = system: Yellow Nutsedge
From the text: as §1, §2

Smartweed = system: Smartweed
From the text: as §1, §2

Velvetleaf = system: Velvetleaf
From the text: as §1, §2

Compound: CCOC(=O)CNCP(=O)(OC(C)(C)C#N)OC(C)(C)C#N [Example 2, glycine, N-[bis(1-cyano-1-methyl-ethoxy)phosphinylmethyl], ethyl ester]
- post-emergent herbicidal activity index (Canada Thistle; 4 WAT, 56.0 kg/h): 4 (100% control)
- post-emergent herbicidal activity index (Barnyardgrass; 2 WAT, 5.6 kg/h): 0 (0-24% control)
- post-emergent herbicidal activity index (Barnyardgrass; 4 WAT, 11.2 kg/h): 1 (25-49% control)
- post-emergent herbicidal activity index (Barnyardgrass; 4 WAT, 56.0 kg/h): 0 (0-24% control)
- post-emergent herbicidal activity index (Cocklebur; 2 WAT, 5.6 kg/h): 0 (0-24% control)
- post-emergent herbicidal activity index (Cocklebur; 4 WAT, 11.2 kg/h): 0 (0-24% control)
- post-emergent herbicidal activity index (Cocklebur; 4 WAT, 56.0 kg/h): 1 (25-49% control)
- post-emergent herbicidal activity index (Morningglory; 2 WAT, 5.6 kg/h): 0 (0-24% control)
- post-emergent herbicidal activity index (Morningglory; 4 WAT, 11.2 kg/h): 0 (0-24% control)
- post-emergent herbicidal activity index (Morningglory; 4 WAT, 56.0 kg/h): 1 (25-49% control)
- post-emergent herbicidal activity index (Lambsquarters; 2 WAT, 5.6 kg/h): 0 (0-24% control)
- post-emergent herbicidal activity index (Lambsquarters; 4 WAT, 11.2 kg/h): 0 (0-24% control)
- post-emergent herbicidal activity index (Lambsquarters; 4 WAT, 56.0 kg/h): 1 (25-49% control)
- post-emergent herbicidal activity index (Downy Brome; 2 WAT, 5.6 kg/h): 0 (0-24% control)
- post-emergent herbicidal activity index (Downy Brome; 4 WAT, 11.2 kg/h): 0 (0-24% control)
- post-emergent herbicidal activity index (Downy Brome; 4 WAT, 56.0 kg/h): 0 (0-24% control)
- post-emergent herbicidal activity index (Johnsongrass; 2 WAT, 5.6 kg/h): 0 (0-24% control)
- post-emergent herbicidal activity index (Johnsongrass; 4 WAT, 11.2 kg/h): 0 (0-24% control)
- post-emergent herbicidal activity index (Johnsongrass; 4 WAT, 56.0 kg/h): 0 (0-24% control)
- post-emergent herbicidal activity index (Quackgrass; 2 WAT, 5.6 kg/h): 0 (0-24% control)
- post-emergent herbicidal activity index (Quackgrass; 4 WAT, 11.2 kg/h): 0 (0-24% control)
- post-emergent herbicidal activity index (Quackgrass; 4 WAT, 56.0 kg/h): 0 (0-24% control)
- post-emergent herbicidal activity index (Yellow Nutsedge; 2 WAT, 5.6 kg/h): 0 (0-24% control)
- post-emergent herbicidal activity index (Yellow Nutsedge; 4 WAT, 11.2 kg/h): 0 (0-24% control)
- post-emergent herbicidal activity index (Yellow Nutsedge; 4 WAT, 56.0 kg/h): 0 (0-24% control)
- post-emergent herbicidal activity index (Smartweed; 2 WAT, 5.6 kg/h): 0 (0-24% control)
- post-emergent herbicidal activity index (Smartweed; 4 WAT, 11.2 kg/h): 0 (0-24% control)
- post-emergent herbicidal activity index (Smartweed; 4 WAT, 56.0 kg/h): 1 (25-49% control)
- post-emergent herbicidal activity index (Velvetleaf; 2 WAT, 5.6 kg/h): 0 (0-24% control)
- post-emergent herbicidal activity index (Velvetleaf; 4 WAT, 11.2 kg/h): 0 (0-24% control)
- post-emergent herbicidal activity index (Velvetleaf; 4 WAT, 56.0 kg/h): 0 (0-24% control)

Compound: C#CCNCP(=O)(OC(C)C#N)OC(C)C#N (stereo not drawn) [Example 3, phosphonic acid, [(2-propnylamino)methyl]-,bis(1-cyanoethyl)ester]
- post-emergent herbicidal activity index (Canada Thistle; 2 WAT, 11.2 kg/h): 0 (0-24% control)
- post-emergent herbicidal activity index (Barnyardgrass; 2 WAT, 11.2 kg/h): 2 (50-74% control)
- post-emergent herbicidal activity index (Cocklebur; 2 WAT, 11.2 kg/h): 0 (0-24% control)
- post-emergent herbicidal activity index (Morningglory; 2 WAT, 11.2 kg/h): 0 (0-24% control)
- post-emergent herbicidal activity index (Lambsquarters; 2 WAT, 11.2 kg/h): 0 (0-24% control)
- post-emergent herbicidal activity index (Downy Brome; 2 WAT, 11.2 kg/h): 0 (0-24% control)
- post-emergent herbicidal activity index (Johnsongrass; 2 WAT, 11.2 kg/h): 0 (0-24% control)
- post-emergent herbicidal activity index (Quackgrass; 2 WAT, 11.2 kg/h): 0 (0-24% control)
- post-emergent herbicidal activity index (Yellow Nutsedge; 2 WAT, 11.2 kg/h): 0 (0-24% control)
- post-emergent herbicidal activity index (Smartweed; 2 WAT, 11.2 kg/h): 1 (25-49% control)
- post-emergent herbicidal activity index (Velvetleaf; 2 WAT, 11.2 kg/h): 0 (0-24% control)
